Among the data in BindingDB's records for doi:10.1021/jm00147a030 (1985) are IC50 values, retold here.

The target in this assay is Angiotensin-converting enzyme (Cavia porcellus). The assay can be described thus: In vitro inhibitory activity against Angiotensin I converting enzyme from unpurified guinea pig serum.
For orientation: IC50 means the concentration that gives 50% inhibition. High values mean a need for much substance, low ones inhibition by little substance. `CCOC(=O)C(CCc1ccccc1)SC(C)C(=O)N1CSC[C@@H]1C(=O)O` (stereo not given in full) came in with an IC50 of 4800 nM.

Consider `CC(SC(CCc1ccccc1)C(=O)O)C(=O)N1C2CCCCC2C[C@H]1C(=O)O` (stereo not given in full), for which the IC50 was determined as 140 nM. To `CCOC(=O)C(CCc1ccccc1)SC(C)C(=O)N1CCCC1C(=O)O` (stereo not given) belongs 2900 nM; to `CC(OC(CCc1ccccc1)C(=O)O)C(=O)N1Cc2ccccc2CC1C(=O)O` (stereo not given), 86 nM; to `CCOC(=O)C(CCc1ccccc1)OC(C)C(=O)N1CCCC1C(=O)O` (stereo not given), 220 nM. To `CCOC(=O)C(CCc1ccccc1)[S+]([O-])C(C)C(=O)N1C2CCCCC2C[C@H]1C(=O)O` (stereo not given in full) belongs 220 nM; to `CC(SC(CCc1ccccc1)C(=O)O)C(=O)N1CCC[C@H]1C(=O)O` (stereo not given in full), 580 nM. The molecule `CCOC(=O)C(CCc1ccccc1)SC(C)C(=O)N1Cc2ccccc2C[C@H]1C(=O)O` (stereo not given in full) gave an IC50 of 460 nM. To `CCOC(=O)C(CCc1ccccc1)OC(C)C(=O)N1C(C(=O)O)CC2CCCCC21` (stereo not given) belongs 24 nM; to `CCOC(=O)C(CCc1ccccc1)OC(C)C(=O)N1Cc2ccccc2CC1C(=O)O` (stereo not given), 14 nM.
